Converted amounts (≈) assume the structure as drawn. The source made the active and inactive calls. The calls are words filed in the database; no cut-off is given here.
Assays:
[1] = system: Mycolicibacterium smegmatis; test: Antitubercular against Mycobacterium smegmatis ATCC 607 by agar dilution method; type: functional
[2] = system: Mycobacterium tuberculosis; test: Antitubercular against Mycobacterium tuberculosis H37Rv infected in mouse assessed as host survival at 2.5 mg/kg/day administered with food for 19 days measured on day 30; type: functional, organism-based
[3] = system: Mycobacterium tuberculosis; test: Antitubercular against Mycobacterium tuberculosis H37Rv infected in mouse assessed as host survival at 9 mg/kg/day administered with food for 19 days measured on day 30; type: functional, organism-based
[4] = system: Mycobacterium tuberculosis; test: Antitubercular against Mycobacterium tuberculosis H37Rv infected in mouse assessed as host survival at 75 mg/kg/day administered with food for 19 days measured on day 30; type: functional, organism-based
[5] = system: Mycobacterium tuberculosis; test: Antitubercular against Mycobacterium tuberculosis H37Rv infected in mouse assessed as host survival at 19 mg/kg/day administered with food for 19 days measured on day 30; type: functional, organism-based
[6] = system: Mycobacterium tuberculosis; test: Antitubercular against Mycobacterium tuberculosis H37Rv infected in mouse assessed as host survival at 5 mg/kg/day administered with food for 19 days measured on day 30; type: functional, organism-based

SMILES | MIC [1] [µg/mL] | other results
CCCCCN(CCCCC)Cc1ccc2nc3ccc(CN(CCCCC)CCCCC)cc3nc2c1 | 62 (≈ 119 µM) | –
CCN(CC)Cc1ccc2nc3ccc(CN(CC)CC)cc3nc2c1.Cl | 5 | –
CCCCCCN(CCCCCC)Cc1ccc2nc3ccc(CN(CCCCCC)CCCCCC)cc3nc2c1 | 62 (≈ 108 µM) | –
CCCCCCCCN(CCCCCCCC)Cc1ccc2nc3ccc(CN(CCCCCCCC)CCCCCCCC)cc3nc2c1 | 62 (≈ 90.2 µM) | –
c1cc2nc3ccc(CN4CCCCC4)cc3nc2cc1CN1CCCCC1 | 62 (≈ 166 µM) | –
NNC(=O)c1ccncc1 [ISONIAZID] | 0.05 (≈ 0.365 µM) | Activity [2]: inactive; Activity [3]: Active
CCCCN(CCCC)Cc1ccc2nc3ccc(CN(CCCC)CCCC)cc3nc2c1.Cl | 2.5 | Activity [4]: Active; Activity [5]: inactive; Activity [6]: inactive
CCCCCCCN(CCCCCCC)Cc1ccc2nc3ccc(CN(CCCCCCC)CCCCCCC)cc3nc2c1 | 62 (≈ 98.2 µM) | –
CC1CN(Cc2ccc3nc4ccc(CN5CC(C)NC(C)C5)cc4nc3c2)CC(C)N1.Cl (stereo not drawn) | 62 | –
CN1CCN(Cc2ccc3nc4ccc(CN5CCN(C)CC5)cc4nc3c2)CC1 | 62 (≈ 153 µM) | –
Cl.c1ccc(N2CCN(Cc3ccc4nc5ccc(CN6CCN(c7ccccn7)CC6)cc5nc4c3)CC2)nc1 | 125 | –
Cl.c1ccc(CN2CCN(Cc3ccc4nc5ccc(CN6CCN(Cc7ccccc7)CC6)cc5nc4c3)CC2)cc1 | 10 | –
CC[C@@H](CO)NCCN[C@@H](CC)CO [ETHAMBUTOL] | 0.5 (≈ 2.45 µM) | –

Reference: ChEMBL document CHEMBL3244240, “Antitubercular 2,8-bis(alkylaminomethyl)phenazines” (1978)
